Here are results for 16 compounds from ChEMBL document CHEMBL1134713, “Synthesis of a novel series of cytotoxic bisindole alkaloids” (Bioorg Med Chem Lett, 2001).

Assay [1] has as its system L1210. The experiment in a line: Compound was evaluated for the percent stimulation of cell proliferation at a concentration of 10 uM. The format is functional, Mus musculus.
For assay [2], the system named is L1210. The experiment in a line: Cytotoxicity against L1210 cell proliferation, measured using microculture tetrazolium assay (MTA). The format is functional, cell-based, Mus musculus.
Assay [3] concerns L1210. The experiment in a line: Evaluated for the dose-dependent accumulation and percent of cells in G1 phase was determined at a concentration of 5 uM. The format is functional, Mus musculus.
Assay [4] deals with L1210. As to the kind of experiment: Evaluated for the dose-dependent accumulation and percent of cells in G1 phase was determined at a concentration of 10 uM. The format is functional, Mus musculus.
Assay [5] concerns L1210. The experiment in a line: Evaluated for the dose-dependent accumulation and percent of cells in G1 phase was determined at a concentration of 20 uM. The format is functional, Mus musculus.
Assay [6] has as its system L1210. The experiment in a line: Evaluated for the dose-dependent accumulation and percent of cells in G1 phase was determined at a concentration of 50 uM. Type of assay: functional, Mus musculus.
Assay [7] deals with L1210. The experiment in a line: Evaluated for the dose-dependent accumulation and percent of cells in G1 phase was determined at a concentration of 25 uM. The format is functional, Mus musculus.

As usually defined, the IC50 is the concentration needed to halve the response being measured. Regarding `CCOC(=O)c1ccc(NC2c3cc(C(=O)OCC)ccc3NC(Cc3c4n(c5ccccc35)[C@H]3N(O)CCC[C@@]3(CC)C=C4C(=O)OC)C2c2c3n(c4ccccc24)[C@H]2N(O)CCC[C@@]2(CC)C=C3C(=O)OC)cc1` (some centres not stated), the Stimulation with L1210 [1] is 118%. This compound showed an IC50 with L1210 [2] (Mus musculus, L1210) of more than 10 µM. In the assay on L1210 [2] (Mus musculus, L1210), `CC[C@]12C=C(C(=O)OC)c3c(CCNc4ccc(F)cc4)c4ccccc4n3[C@H]1N(O)CCC2` registered an IC50 of 15.4 µM. For the compound `CC[C@]12C=C(C(=O)OC)c3c(CC4Nc5ccc(F)cc5CC4c4c5n(c6ccccc46)[C@H]4N(O)CCC[C@@]4(CC)C=C5C(=O)OC)c4ccccc4n3[C@H]1N(O)CCC2` (some centres not stated), in the assay on L1210 [2] (Mus musculus, L1210), half-maximal inhibition (IC50) was put at 1.8 µM. Moreover, the Cells in the assay with L1210 [3] was determined as 81%. Consider `CC[C@]12C=C(C(=O)OC)c3c(CC4Nc5ccc(Cl)cc5CC4c4c5n(c6ccccc46)[C@H]4N(O)CCC[C@@]4(CC)C=C5C(=O)OC)c4ccccc4n3[C@H]1N(O)CCC2` (some centres not stated), for which the Cells with L1210 [4] is reported as 77%. The compound further yielded an IC50 in the assay on L1210 [2] (Mus musculus, L1210) of 3.6 µM. In turn, `CC[C@]12C=C(C(=O)OC)c3c(CC4Nc5ccc(OC)cc5CC4c4c5n(c6ccccc46)[C@H]4N(O)CCC[C@@]4(CC)C=C5C(=O)OC)c4ccccc4n3[C@H]1N(O)CCC2` (some centres not stated) showed a Cells in the assay on L1210 [5] of 69%. The same compound gave an IC50 with L1210 [2] (Mus musculus, L1210) of 2.2 µM.

The compound `CC[C@]12C=C(C(=O)OC)c3c(CC4Nc5ccc(O)cc5C(OC)C4c4c5n(c6ccccc46)[C@H]4N(O)CCC[C@@]4(CC)C=C5C(=O)OC)c4ccccc4n3[C@H]1N(O)CCC2` (some centres not stated) returned an IC50 with L1210 [2] (Mus musculus, L1210) of 0.9 µM.

For the compound `CC[C@]12C=C(C(=O)OC)c3c(CC4Nc5ccccc5CC4c4c5n(c6ccccc46)[C@H]4N(O)CCC[C@@]4(CC)C=C5C(=O)OC)c4ccccc4n3[C@H]1N(O)CCC2` (stereo in doubt; 6), in the assay with L1210 [6], the Cells worked out at 4.5%. This compound also gave an IC50 with L1210 [2] (l1210) of 71 µM.

In turn, `CC[C@]12C=C(C(=O)OC)c3c(CC4Nc5cc(Cl)cc(Cl)c5C(Nc5cc(Cl)cc(Cl)c5)C4c4c5n(c6ccccc46)[C@H]4N(O)CCC[C@@]4(CC)C=C5C(=O)OC)c4ccccc4n3[C@H]1N(O)CCC2` (some centres not stated) showed a Stimulation with L1210 [1] of 156%. Besides, the IC50 in the assay with L1210 [2] (Mus musculus, L1210) is more than 10 µM.

In the assay with L1210 [1], `CC[C@]12C=C(C(=O)OC)c3c(CC4Nc5ccc(C(F)(F)F)cc5C(Nc5ccc(C(F)(F)F)cc5)C4c4c5n(c6ccccc46)[C@H]4N(O)CCC[C@@]4(CC)C=C5C(=O)OC)c4ccccc4n3[C@H]1N(O)CCC2` (some centres not stated) had a Stimulation of 152%. In addition, the IC50 in the assay on L1210 [2] (Mus musculus, L1210) is more than 10 µM. In the case of `CC[C@]12C=C(C(=O)OC)c3c(CC4Nc5cc(OC)c(OC)c(OC)c5CC4c4c5n(c6ccccc46)[C@H]4N(O)CCC[C@@]4(CC)C=C5C(=O)OC)c4ccccc4n3[C@H]1N(O)CCC2` (some centres not stated), in the assay on L1210 [2] (Mus musculus, L1210), the half-maximal inhibitory concentration (IC50) stood at 2.4 µM. In the assay on L1210 [3], this compound registered a Cells of 61%. `CC[C@]12C=C(C(=O)OC)c3c(CC4Nc5ccc(Cl)cc5C(Nc5ccc(Cl)cc5)C4c4c5n(c6ccccc46)[C@H]4N(O)CCC[C@@]4(CC)C=C5C(=O)OC)c4ccccc4n3[C@H]1N(O)CCC2` (some centres not stated): the Stimulation with L1210 [1] was 126%. This compound also had an IC50 in the assay on L1210 [2] (Mus musculus, L1210) of more than 10 µM. Take `CC[C@]12C=C(C(=O)OC)c3c(CC4Nc5ccc(OC)cc5C(OC)C4c4c5n(c6ccccc46)[C@H]4N(O)CCC[C@@]4(CC)C=C5C(=O)OC)c4ccccc4n3[C@H]1N(O)CCC2` (some centres not stated): the Cells with L1210 [5] came out at 81%. For the same compound, half-maximal inhibition in the assay on L1210 [2] (Mus musculus, L1210) (IC50) required 1.7 µM. Take `CC[C@]12C=C(C(=O)OC)c3c(CC4Nc5cc(Cl)cc(Cl)c5CC4c4c5n(c6ccccc46)[C@H]4N(O)CCC[C@@]4(CC)C=C5C(=O)OC)c4ccccc4n3[C@H]1N(O)CCC2` (some centres not stated): the IC50 with L1210 [2] (Mus musculus, L1210) was more than 10 µM. The same measure, in the same setting: as for `CC[C@]12C=C(C(=O)OC)c3c(CC4Nc5c(F)cccc5C(Nc5ccccc5F)C4c4c5n(c6ccccc46)[C@H]4N(O)CCC[C@@]4(CC)C=C5C(=O)OC)c4ccccc4n3[C@H]1N(O)CCC2` (some centres not stated), the figure is 14.1 µM; as for `CC[C@]12C=C(C(=O)OC)c3c(CC4Nc5c(Cl)cccc5C(Nc5ccccc5Cl)C4c4c5n(c6ccccc46)[C@H]4N(O)CCC[C@@]4(CC)C=C5C(=O)OC)c4ccccc4n3[C@H]1N(O)CCC2` (some centres not stated), more than 10 µM.

In the assay on L1210 [7], `CC[C@]12C=C(C(=O)OC)c3c(CC4Nc5ccccc5CC4c4c5n(c6ccccc46)[C@H]4N(O)CCC[C@@]4(CC)C=C5C(=O)OC)c4ccccc4n3[C@H]1N(O)CCC2` (stereo in doubt; 1) displayed a Cells of 80%. In the assay with L1210 [2] (l1210), this compound returned an IC50 of 2.7 µM.
